According to patent US9884813B1, “Pharmaceutically acceptable salts of B-guanidinopropionic acid with improved properties and uses thereof” (Rgenix, Inc., priority 2017, dated 2018):
Where “and” joins values, the source holds several entries; their conditions need not be identical. Equal values may be shown once. Entries after “also recorded” stand apart in the source; their conditions may differ.

Assays:
[1] = Experiments on lyophilized 2:1 fumarate polymorph (Pattern 7C); format: physicochemical
Protocol: 1 g of 2:1 β-GPA fumarate was dissolved in 10 mL of water at 50° C. in a round bottom flask. The round bottom flask was placed in the dry ice/acetone cooling bath (−78° C.) until the sample solidified followed by lyophilization for 48 hours. A white solid was obtained which was analyzed by XRPD, DSC and ^1H-NMR. Sample ID: 2162-84-1.
To confirm the above hypothesis the following experiments (Table 25) were performed on the lyophilized sample (Pattern 7C): […]

[2] = Carr's index and Hausner ratio (predicted flowability); format: physicochemical; conditions: for Carr's index / Hausner ratio: calculated from bulk and tapped volumes; for Flow character: scale of Table 6 (Carr's index)
Description: The flow properties of β-GPA are sub-optimal. The bulk density is 0.389 g/cc and the tapped density is 0.627 g/cc. These measurements can be used to calculate the Carr's index and Hausner ratio for a substance. The Carr's index and Hausner ratio are indicators of flowability of a powder. As known in the art, e.g., as described in Carr R. L. Chem. Eng. 1965, 72, 163-168, the relationship to flowability of a powder to the Carr's index and Hausner ratio is based on the scale shown in Table 6 below.
Carr's index or Carr's compressibility index (C) is an indication of the compressibility of a powder. It can be calculated using the equation below: Carr's index (C)=100(Vi−Vf)/Vi (3) A Carr's index greater than 25 is considered to be an indication of poor flowability while a value below 15 is an indication of good flowability.
The Hausner ratio is a number that is correlated to the flowability of a powder or granular material. It is calculated by using the equation below: Hausner ratio=Vi/Vf (4)

[3] = Dynamic vapor sorption (DVS) with XRPD of the post-DVS sample; format: physicochemical; conditions: relative humidity between 0-95 percent
[4] = Flowability measurement using Hanson Flodex unit; format: physicochemical; conditions: for flow character from the experimental data: summary of density and Flodex measurements
Description: Method: A cylindrical vessel is secured to the stand and above that a funnel is also secured such that the bottom of the funnel is close to the vessel. A powder load of ≈50-60 g is then poured through the funnel into the middle of the cylinder. The lever device is pulled to open the hole in the disk quickly and without vibration. If a powder slowly flows through the small-diameter holes, leaving a cavity shaped like an upside-down, truncated cone, the test is considered positive. If a powder flocculates in bulk and falls abruptly, forming a cylindrical cavity, the test is considered negative. […] If the experiment is negative, the powder is tested again with a disk having a larger hole.

[5] = Dynamic vapor sorption (DVS) with XRPD of the post-DVS sample; format: physicochemical; conditions: for solid form by XRPD after the DVS experiment: post DVS sample
Protocol: Samples were analyzed using an Aquadyne DVS-2 gravimetric water sorption analyzer. The relative humidity was adjusted between 2-95% and the weight of the sample was continuously monitored and recorded.
[…]: β-GPA maleate (1:1) Form II, β-GPA fumarate (1:1), β-GPA maleate (2:1), β-GPA succinate (2:1) and β-GPA oxalate (1:1) were analyzed by DVS experiment followed by XRPD analysis of the sample at the end of the experiment.
Sample 2162-64-1 was analyzed by DVS in triplicate and the post DVS samples were characterized by XRPD to identify the form at the end of the experiment.

Bulk and tapped density = format: physicochemical
Protocol: The bulk density of β-GPA oxalate (Pattern 18 B), succinate (Pattern 15A), and fumarate (Pattern 7A) were determined by pouring in a known amount of salt (g) into a measuring cylinder. The volume (Vi) occupied by the salt was recorded and the bulk density (ρB) was determined using equation 1. ρB=g/Vi (1)
The tapped densities of the salts were determined using a Tap density analyzer. A known amount of salt was poured (g) into a measuring cylinder and the initial volume was recorded and tapped using a Tap density analyzer. The final volume (Vf) after tapping was recorded and the tapped density (ρT) was calculated by using equation 2. ρT=g/Vf (2)

[6] = Carr's index and Hausner ratio (predicted flowability); format: physicochemical; conditions: Table 18, scale of Table 17
[7] = Solid form stability at 40° C. and 75% humidity; format: physicochemical; conditions: for solid form stability (XRPD): 40° C. and 75% RH for seven days
Protocol: Solid form stability studies of β-GPA fumarate, succinate, and oxalate were carried out at 40° C. and 75% RH for seven days. Around 30 mg of the salts were placed in 4 mL vials which were placed in a saturated solution of sodium chloride (2 mL) with lids closed at 40° C. […]

[8] = Roller compaction feasibility (slugs, capsule fill)
Protocol: Roller compaction feasibility was performed by producing slugs using a single station hand press then carefully hand milling those slugs so that all granules were small enough to pass through a size US 18 mesh. These granules were then filled into size 0 capsules by both the free flow and tamp method. A total of N=5 capsules were filled for each lot for each method. The average net fill weight results are given below in […]. The same issue was not seen when compressing the succinate salt form of β-GPA. Slugs produced around 1500 PSI produced slugs hard enough to be tested for hardness. The resulting slug parameters can be seen in Table 33.

[9] = Compression profile evaluation (tabletability); format: physicochemical
Protocol: Compression profiling was also performed on both the free base and the salt form of the API. A standard formulation containing plastic diluent, brittle diluent, disintegrant and lubricant was evaluated at a loading of 25% and 50% API. The diluent level was adjusted accordingly, but the ratio of plastic to brittle filler was set a 1:1. It was decided to use a representative tablet formulation to perform compression profiling to mitigate the cohesion and sticking issues seen in the free base and the salt form during the roller compaction feasibility evaluation. Table 37 details the formulation compositions tested.
These blends were then compressed into 100 mg compacts using 0.25-inch flat faced tooling at increasing compaction pressures. A total of N=3 compacts were produced at each compaction pressure and were measured for weight, thickness and hardness. The compression stresses used were calculated by dividing the force applied to the compact by the surface area of the 0.25 in flat faced tooling. The tensile strength of the compacts was calculated using the equations derived for flat faced tablets. For each formulation, a tabletability (tensile strength vs. compression pressure) was generated. For the purposes of this study the tabletability profile was examined to determine the compaction pressure required in order to produce a tablet of acceptable tensile strength. Historically a tablet with a tensile strength of 2.0 Mpa is sufficient to both withstand friability and to not impact disintegration and dissolution.

[10] = Solid form stability under stressed conditions (wet, dry, high humidity) by XRPD; format: physicochemical
Protocol: The solid form stability of each salt was studied by XRPD under stressed conditions: wet, dry (45° C. under vacuum) and high humidity (RH >95%).

[11] = Solid form stability of salts in different solvents (slurry, XRPD); format: physicochemical; conditions: 48 hours, room temperature
Protocol: Three salts were studied for solid form stability in water (disproportionation test), methanol, acetonitrile, and acetone:water (9:1) for 48 hours at room temperature.

[12] = as above; format: physicochemical; conditions: water, 6 hours, room temperature
[13] = Average of 5 slugs, average Compression Force 1600.00 PSI (28.67 MPa)
[14] = slug, Compression Force 1500 PSI, Compression Stress 27 MPa, listed as β-Guanidinopropionic Acid Succinate Salt
[15] = slug, Compression Force 2000 PSI, Compression Stress 36 MPa

Compound: N=C(N)NCCC(=O)O.N=C(N)NCCC(=O)O.O=C(O)/C=C/C(=O)O [Pattern 7C]
- stability of the polymorph [1]: unstable

Compound: N=C(N)NCCC(=O)O [β-GPA, β-Guanidinopropionic acid, reference compound]
- Carr's index [2]: 37.9
- Hausner ratio [2]: 1.610
- Flow character ([2]; predicted): Very poor (32-37)
- Flow character by Hausner ratio ([2]; predicted, scale of Table 6 (Hausner ratio)): Very very poor (>1.60)
- moisture absorbed and desorbed [3]: around 0.1%
- Did solid pass? ([4]; Disc pore size 18 mm): No
- Did solid pass? ([4]; Disc pore size 20 mm): No
- Did solid pass? ([4]; Disc pore size 28 mm): No
- Did solid pass? ([4]; Disc pore size 30 mm): No
- Did solid pass? ([4]; Disc pore size 34 mm): Yes
- flow character from the experimental data [4]: poor
- water uptake ([5]; 80% humidity at 25° C.): ~0.3%
- solid form by XRPD after the DVS experiment [5]: No change in the solid form
- Bulk density (Bulk and tapped density): 0.389 g/cc
- Tapped density (Bulk and tapped density): 0.627 g/cc
- Flow character [6]: Very very poor (>38)
- degradation ([7]; 40° C. at 75% humidity after 4 weeks): No degradation was observed
- calculated solid fraction of slugs ([8]; slugs produced using up to 2000 psi): 74%
- compression stress (compaction pressure) required to produce a tablet of 2.0 Mpa tensile strength ([9]; 25% API loading formulation): roughly 235 Mpa
- compression stress (compaction pressure) required to produce a tablet of 2.0 Mpa tensile strength ([9]; 50% API loading formulation): incapable of reaching a tablet with 2.0 Mpa

Compound: N=C(N)NCCC(=O)O.N=C(N)NCCC(=O)O.O=C(O)CCC(=O)O [β-GPA succinate (2:1)]
- Carr's index [2]: 14.3
- Hausner ratio [2]: 1.167
- Flow character ([2]; predicted): Good (11-15)
- Did solid pass? ([4]; Disc pore size 5 mm): No
- Did solid pass? ([4]; Disc pore size 6 mm): No
- Did solid pass? ([4]; Disc pore size 7 mm): Yes
- Did solid pass? ([4]; Disc pore size 8 mm): Yes
- Did solid pass? ([4]; Disc pore size 10 mm): Yes
- Did solid pass? ([4]; Disc pore size 18 mm): Yes
- Did solid pass? ([4]; Disc pore size 20 mm): Yes
- Did solid pass? ([4]; Disc pore size 22 mm): Yes
- Did solid pass? ([4]; Disc pore size 24 mm): Yes
- flow character from the experimental data [4]: good
- Dry_XRPD pattern ([10]; dry (45° C. under vacuum)): Pattern 15A
- stability in dry conditions ([10]; dry conditions): stable
- Humid_XRPD pattern ([10]; high humidity (RH >95%)): Pattern 15A
- stability under high humidity conditions ([10]; high humidity conditions): stable
- Wet_XRPD pattern ([10]; wet): Pattern 15A
- solid form by XRPD after the DVS experiment [5]: retained their XRPD
- solid form by XRPD after the DVS experiment ([5]; listed as 2:1 succinate salt): no form change
- solid form by XRPD after the DVS experiment ([5]; listed as 2:1 β-GPA succinate): no form change
- Bulk density (Bulk and tapped density): 0.405 g/cc
- Tapped density (Bulk and tapped density): 0.472 g/cc
- Flow character [6]: Good (11-15)
- XRPD pattern after slurry ([11]; acetone:water (9:1)): presence of β-GPA
- XRPD pattern after slurry ([11]; acetonitrile): retain its original form
- XRPD pattern after slurry ([11]; acetonitrile, listed as 2:1 β-GPA succinate): retain its XRPD pattern
- XRPD pattern after slurry ([11]; methanol): retain its original form
- XRPD pattern after slurry ([11]; methanol, listed as 2:1 β-GPA succinate): retain its XRPD pattern
- XRPD pattern after slurry [12]: two peaks from β-GPA
- XRPD pattern after slurry ([12]; listed as 2:1 β-GPA succinate): started showing up peaks from β-GPA
- solid form stability (XRPD) [7]: retained their original XRPD pattern; also recorded: stable
- solid form stability (XRPD) ([7]; listed as 2:1 succinate salt): stable
- Calculated Solid Fraction [8, 13]: 0.80
- Tablet Hardness [8, 13]: 4.86 kp
- Tensile Strength [8, 13]: 0.34 MPa
- Calculated Solid Fraction ([8]; slug, Compression Force 1500 PSI, Compression Stress 27 MPa): 0.79
- Tablet Hardness [8, 14]: 5.1 kp and 3.7 kp and 4.4 kp and 4.3 kp
- Tensile Strength [8, 14]: 0.35 MPa and 0.25 MPa and 0.30 MPa and 0.29 MPa
- Calculated Solid Fraction [8, 15]: 0.85
- Tablet Hardness [8, 15]: 6.8 kp
- Tensile Strength [8, 15]: 0.50 MPa
- compaction force required to produce a tablet of 2.0 Mpa tensile strength ([9]; 25% API loading formulation): 22.7 kN
- compression stress (compaction pressure) required to produce a tablet of 2.0 Mpa tensile strength ([9]; 25% API loading formulation): 150 Mpa
- compaction force required to produce a tablet of 2.0 Mpa tensile strength ([9]; 50% API loading formulation): ~34.8 kN
- compression stress (compaction pressure) required to produce a tablet of 2.0 Mpa tensile strength ([9]; 50% API loading formulation): ~230 Mpa
